In publication PMC6514978, “Synthesis, Antibacterial Activities, Mode of Action and Acute Toxicity Studies of New Oxazolidinone-Fluoroquinolone Hybrids” (Molecules, 2019):
In brackets after ≈: the same amount, converted by molar mass.

Experiments:
[1] = test system: S. haemolyticus (32) clinical isolates; experiment: Susceptibility of clinical isolates (MIC); format: cell-based, Staphylococcus haemolyticus
Method: (§1) Susceptibility testing of oxazolidinone-fluoroquinolone hybrids against various bacteria was performed by the broth microdilution method as outlined by the Clinical and Laboratory Standards Institute (CLSI). Three types of media, including cation-adjusted Mueller Hinton broth, Haemophilus Test Medium and cation-adjusted Mueller Hinton broth that contained 3%–5% lysed horse blood, were used to culture the corresponding bacteria. […] A final inoculum of 5 × 10^5 CFU/mL was used and plates were read after incubation for 16–24 h at 35 °C. […] Standard quality control strains (ATCC) were included throughout. Each determination was repeated in triplicate.

[2] = test system: S. aureus (46) clinical isolates; experiment: Susceptibility of clinical isolates (MIC); format: cell-based, Staphylococcus aureus
Method: as §1

[3] = test system: S. epidermidis (10) clinical isolates; experiment: Susceptibility of clinical isolates (MIC); format: cell-based, Staphylococcus epidermidis
Method: as §1

[4] = test system: S. pneumoniae (ATCC49619); experiment: MIC, broth microdilution (CLSI), standard strain; format: cell-based; conditions: Streptococcus pneumoniae
Excerpt: (§2) 6 standard strains and 3 clinical isolates were used to the preliminary evaluation of in vitro antibacterial activities of oxazolidinone-fluoroquinolone hybrids. For the further evaluation of hybrids OBP-4 and OBP-5, 263 clinical isolates including S. aureus (46), S. haemolyticus(32), S. epidermidis (10), E. faecalis (72), E. faecium (47), S. pneumoniae (13), H. parasuis (34), S. suis (9), and 8 resistant strains including MRSA, MRSE, CIP-resistant S. aureus and S. haemolyticus, VAN and quinolone-resistant S. pneumoniae, LZD-resistant E. faecalis, LZD/VAN and quinolone-resistant E. faecium were collected and tested.
(§3) Susceptibility testing of oxazolidinone-fluoroquinolone hybrids against various bacteria was performed by the broth microdilution method as outlined by the Clinical and Laboratory Standards Institute (CLSI). Three types of media, including cation-adjusted Mueller Hinton broth, Haemophilus Test Medium and cation-adjusted Mueller Hinton broth that contained 3%–5% lysed horse blood, were used to culture the corresponding bacteria. All compounds including comparator drugs were dissolved in an appropriate solvent at a concentration of 2.048 mg/mL and then serially diluted two-fold to provide the required concentrations. A final inoculum of 5 × 10^5 CFU/mL was used and plates were read after incubation for 16–24 h at 35 °C. […] Standard quality control strains (ATCC) were included throughout. Each determination was repeated in triplicate.

[5] = test system: S. aureus (ATCC29213); experiment: MIC, broth microdilution (CLSI), standard strain; format: cell-based; conditions: Staphylococcus aureus
Excerpt: as §2, §3

[6] = test system: E. faecalis (ATCC29212); experiment: MIC, broth microdilution (CLSI), standard strain; format: cell-based; conditions: Enterococcus faecalis; E. faecalis (ATCC29212); read-out: MIC
Excerpt: as §2, §3

[7] = test system: E. coli (ATCC25922); experiment: MIC, broth microdilution (CLSI), standard strain; format: cell-based; conditions: Escherichia coli, ATCC25922
Excerpt: as §2, §3

[8] = test system: P. Aeruginosa (ATCC27853); experiment: MIC, broth microdilution (CLSI), standard strain; format: cell-based; conditions: Pseudomonas aeruginosa, ATCC27853
Excerpt: as §2, §3

[9] = test system: H. influenzae (ATCC49247); experiment: MIC, broth microdilution (CLSI), standard strain; format: cell-based; conditions: Haemophilus influenzae
Excerpt: as §2, §3

[10] = test system: S. suis (9) clinical isolates; experiment: Susceptibility of clinical isolates (MIC); format: cell-based, Streptococcus suis; conditions: Streptococcus suis, S. suis, 9 clinical isolates
Method: as §1

[11] = test system: E. faecalis (72) clinical isolates; experiment: Susceptibility of clinical isolates (MIC); format: cell-based, Enterococcus faecalis
Method: as §1

[12] = test system: H. parasuis (34) clinical isolates; experiment: Susceptibility of clinical isolates (MIC); format: cell-based, Haemophilus parasuis; conditions: Glaesserella parasuis, H. parasuis, 34 clinical isolates
Method: as §1

[13] = test system: VRE (13B330); experiment: MIC, broth microdilution (CLSI), clinical isolate; format: cell-based, vancomycin-resistant enterococcus; conditions: Enterococcus
Excerpt: as §2, §3

[14] = test system: protein synthesis (E. coli extract-based cell-free protein expression system); experiment: In vitro transcription/translation assay (S30 T7 cell-free system, Renilla luciferase); format: biochemical; conditions: E. coli S30 T7 cell-free transcription/translation, 1 h, 37 °C; read-out: IC50 Inhib. of Protein Synthesis
Method: The influence of hybrids OBP-4 and OBP-5 against protein synthesis was confirmed by the S30 T7 High-Yield Protein Expression System (Promega Co., Ltd.). The S30 T7 High-Yield Protein Expression System is an E. coli extract-based cell-free protein expression system, which can effectively transcribe and translate DNA fragments with a T7 promoter. The reaction system containing 1 μg plasmid DNA, 20 μL S30 Premix Plus and 18 μL T7 S30 Extract with or without compounds was incubated for 1 h at 37 °C with a rotational speed of 250 rpm, and terminated by cooling in ice for 5 min in a 96-well white multi-well plate. Then, 1.25 μL of the translation reaction mixture was added to 48.75 μL of Renilla Luciferase Assay Lysis Buffer, and mixed with 50 μL of Renilla Luciferase Assay Reagent (cat no. E2810; Promega). Renilla luciferase activity was measured on EnSpire® Multimode Plate Reader (PerkinElmer, Waltham, MA, USA). […] LZD was used as a positive control.

[15] = S. haemolyticus clinical isolates, CLSI criteria
[16] = E. faecalis clinical isolates, CLSI criteria
[17] = Enterococcus faecalis, E. faecalis, 72 clinical isolates

SMILES: CC(=O)NC[C@H]1CN(c2ccc(N3CCOCC3)c(F)c2)C(=O)O1 [LZD, linezolid, reference compound]
- CLSI %R (resistant) [1, 15]: 3.8%
- CLSI %S (susceptible) [1, 15]: 96.2%
- MIC50 ([1]; Staphylococcus haemolyticus, S. haemolyticus, 32 clinical isolates, read-out: MIC50): 0.5 µg/mL (≈ 1.48 µM)
- MIC90 ([1]; Staphylococcus haemolyticus, S. haemolyticus, 32 clinical isolates, read-out: MIC90): 2 µg/mL (≈ 5.93 µM)
- MIC ([1]; Staphylococcus haemolyticus, S. haemolyticus, 32 clinical isolates, read-out: MIC Range): 0.125 to 8 µg/mL (≈ 0.371 to 23.7 µM)
- CLSI %S (susceptible) ([2]; S. aureus clinical isolates, CLSI criteria): 100.0/- %
- MIC50 ([2]; Staphylococcus aureus, S. aureus, 46 clinical isolates, read-out: MIC50): 2 µg/mL (≈ 5.93 µM)
- MIC90 ([2]; Staphylococcus aureus, S. aureus, 46 clinical isolates, read-out: MIC90): 2 µg/mL (≈ 5.93 µM)
- MIC ([2]; Staphylococcus aureus, S. aureus, 46 clinical isolates, read-out: MIC Range): 0.5 to 2 µg/mL (≈ 1.48 to 5.93 µM)
- CLSI %S (susceptible) ([3]; S. epidermidis clinical isolates, CLSI criteria): 100.0/- %
- MIC50 ([3]; Staphylococcus epidermidis, S. epidermidis, 10 clinical isolates, read-out: MIC50): 1 µg/mL (≈ 2.96 µM)
- MIC90 ([3]; Staphylococcus epidermidis, S. epidermidis, 10 clinical isolates, read-out: MIC90): 1 µg/mL (≈ 2.96 µM)
- MIC ([3]; Staphylococcus epidermidis, S. epidermidis, 10 clinical isolates, read-out: MIC Range): 0.5 to 1 µg/mL (≈ 1.48 to 2.96 µM)
- MIC [4]: 1 µg/mL (≈ 2.96 µM)
- MIC [5]: 4 µg/mL (≈ 11.9 µM)
- MIC [6]: 4 µg/mL (≈ 11.9 µM)
- MIC [7]: 128 µg/mL (≈ 379 µM)
- MIC [8]: 128 µg/mL (≈ 379 µM)
- MIC [9]: 8 µg/mL (≈ 23.7 µM)
- MIC50 ([10]; read-out: MIC50): 0.5 µg/mL (≈ 1.48 µM)
- MIC90 ([10]; read-out: MIC90): 4 µg/mL (≈ 11.9 µM)
- MIC ([10]; read-out: MIC Range): 0.5 to 4 µg/mL (≈ 1.48 to 11.9 µM)
- CLSI %R (resistant) [11, 16]: 2.7%
- CLSI %S (susceptible) [11, 16]: 97.3%
- MIC Range ([11]; E. faecalis, 72 clinical isolates): 0.5 to 8 µg/mL
- MIC50 [11, 17]: 2 µg/mL (≈ 5.93 µM)
- MIC90 [11, 17]: 2 µg/mL (≈ 5.93 µM)
- MIC50 ([12]; read-out: MIC50): 16 µg/mL (≈ 47.4 µM)
- MIC90 ([12]; read-out: MIC90): > 32 µg/mL
- MIC [13]: 2 µg/mL (≈ 5.93 µM)
- IC50 [14]: 5 µM
